Experimental data reported in ChEMBL document CHEMBL1134804, “Studies leading to the identification of ZD1839 (IRESSA): an orally active, selective epidermal growth factor receptor tyrosine kinase inhibitor targeted to the treatment of cancer” (Bioorg Med Chem Lett, 2001).

Assays:
KB 3-1 = assay: cells; conditions: Homo sapiens
Description: In vitro inhibitory activity against EGF-stimulated proliferation of KB2 cells in culture

in vivo = conditions: mouse, po, 200 mg/kg
[1] = molecular target: Epidermal growth factor receptor (Homo sapiens, UniProt P00533);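 further: tyrosine kinase inhibition of EGFR isolated from A431 vulval squamous carcinoma cells, measured in vitro with a TKI assay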
Epidermal growth factor receptor, sequence (P00533 whole entry): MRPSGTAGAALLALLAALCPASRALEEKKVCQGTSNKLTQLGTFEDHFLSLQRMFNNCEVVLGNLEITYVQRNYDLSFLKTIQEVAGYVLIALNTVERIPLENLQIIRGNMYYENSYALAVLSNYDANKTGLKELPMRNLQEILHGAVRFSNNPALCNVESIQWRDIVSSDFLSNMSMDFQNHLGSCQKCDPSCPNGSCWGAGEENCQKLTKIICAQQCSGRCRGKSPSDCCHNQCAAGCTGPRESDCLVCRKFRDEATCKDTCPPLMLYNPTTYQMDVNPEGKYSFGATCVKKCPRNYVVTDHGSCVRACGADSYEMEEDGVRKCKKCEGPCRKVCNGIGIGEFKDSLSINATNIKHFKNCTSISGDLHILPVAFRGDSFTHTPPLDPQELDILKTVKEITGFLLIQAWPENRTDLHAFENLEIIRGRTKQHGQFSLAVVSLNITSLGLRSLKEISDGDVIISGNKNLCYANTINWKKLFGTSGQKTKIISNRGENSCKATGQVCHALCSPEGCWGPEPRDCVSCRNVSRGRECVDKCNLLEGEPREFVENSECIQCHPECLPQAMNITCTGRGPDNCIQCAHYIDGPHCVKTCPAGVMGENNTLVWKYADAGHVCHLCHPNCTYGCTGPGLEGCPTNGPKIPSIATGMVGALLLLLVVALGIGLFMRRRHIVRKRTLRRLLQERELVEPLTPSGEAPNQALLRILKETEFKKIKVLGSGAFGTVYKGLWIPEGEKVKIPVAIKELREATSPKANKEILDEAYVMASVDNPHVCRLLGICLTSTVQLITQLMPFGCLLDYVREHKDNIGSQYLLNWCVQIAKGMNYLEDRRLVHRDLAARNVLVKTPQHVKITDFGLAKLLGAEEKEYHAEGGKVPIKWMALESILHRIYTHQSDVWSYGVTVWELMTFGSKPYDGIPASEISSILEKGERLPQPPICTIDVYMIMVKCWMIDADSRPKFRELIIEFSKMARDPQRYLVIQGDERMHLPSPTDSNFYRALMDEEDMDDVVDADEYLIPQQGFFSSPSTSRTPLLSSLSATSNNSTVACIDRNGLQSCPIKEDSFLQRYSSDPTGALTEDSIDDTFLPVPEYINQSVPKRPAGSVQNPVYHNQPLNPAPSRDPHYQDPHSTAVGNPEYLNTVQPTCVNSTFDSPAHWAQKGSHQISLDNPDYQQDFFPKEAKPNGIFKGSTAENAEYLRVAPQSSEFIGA
Description: In vitro inhibitory activity against Epidermal growth factor receptor (EGFR-TK) from A431 vulval squamous carcinoma cells using TKI assay

Row | IC50 (KB 3-1) | concentration at 6 h (in vivo) | IC50 [1] | Compound
1 | 380 nM | 156 µM | – | COc1cc2ncnc(Nc3ccc(F)c(Cl)c3)c2cc1OCCN1CCOCC1
2 | 160 nM | 23 µM | 95 nM | COc1cc2ncnc(Nc3ccc(F)c(Cl)c3)c2cc1OC[C@@H](O)CN1CCOCC1
3 | 130 nM | 15 µM | 67 nM | COc1cc2ncnc(Nc3ccc(F)c(Cl)c3)c2cc1OC[C@H](O)CN1CCOCC1
4 | – | 5.2 µM | – | COc1cc2ncnc(Nc3ccc(F)c(Cl)c3)c2cc1OCCCN1CCCCC1
5 | 310 nM | 2.8 µM | 93 nM | CCN(CC)CCOc1cc2c(Nc3ccc(F)c(Cl)c3)ncnc2cc1OC
6 | 350 nM | 1.6 µM | 8 nM | CNCCOc1cc2c(Nc3ccc(F)c(Cl)c3)ncnc2cc1OC
7 | – | 164 µM | – | COc1cc2ncnc(Nc3ccc(F)c(Cl)c3)c2cc1OCCn1ccnc1
8 | 170 nM | 7.2 µM | 61 nM | COCCN(CCOC)CCOc1cc2c(Nc3ccc(F)c(Cl)c3)ncnc2cc1OC
9 | – | 8.8 µM | – | COc1cc2ncnc(Nc3ccc(F)c(Cl)c3)c2cc1OCCCN1CCCC1
10 | 850 nM | 0.2 µM | 5 nM | COc1cc2ncnc(Nc3ccc(F)c(Cl)c3)c2cc1OCC(O)CN(CCO)CCO (stereo not drawn)
11 | 90 nM | 7.1 µM | – | COc1cc2ncnc(Nc3ccc(F)c(Cl)c3)c2cc1OCCN1CCN(C)CC1
12 | – | 16 µM | – | COc1cc2ncnc(Nc3ccc(F)c(Cl)c3)c2cc1OC
13 | – | 5.4 µM | – | CCN(CC)CCCOc1cc2c(Nc3ccc(F)c(Cl)c3)ncnc2cc1OC
14 | 220 nM | 0.4 µM | 310 nM | COc1cc2ncnc(Nc3ccc(F)c(Cl)c3)c2cc1OCCNC(C)C
15 | 910 nM | 0.1 µM | 69 nM | COc1cc2ncnc(Nc3ccc(F)c(Cl)c3)c2cc1OCCNC(C)(CO)CO
16 | – | 16 µM | – | COc1cc2ncnc(Nc3ccc(F)c(Cl)c3)c2cc1OCCN1CCCCC1
17 | 220 nM | – | 5 nM | CNCC(O)COc1cc2c(Nc3ccc(F)c(Cl)c3)ncnc2cc1OC (stereo not drawn)
18 | – | 0.1 µM | – | COc1cc2ncnc(Nc3ccc(F)c(Cl)c3)c2cc1OCC(O)CN (stereo not drawn)
19 | 460 nM | 1 µM | 35 nM | COc1cc2ncnc(Nc3ccc(F)c(Cl)c3)c2cc1OCCN(CCO)CCO
20 | 50 nM | – | – | COc1cc2ncnc(Nc3cccc(C)c3)c2cc1OC
21 | 180 nM | 11 µM | 8 nM | COCCNCCOc1cc2c(Nc3ccc(F)c(Cl)c3)ncnc2cc1OC
22 | 150 nM | 1.1 µM | 2 nM | COc1cc2ncnc(Nc3ccc(F)c(Cl)c3)c2cc1OCCNCCN(C)C
23 | – | 8.2 µM | – | COc1cc2ncnc(Nc3ccc(F)c(Cl)c3)c2cc1OCCN1CCCC1
24 | 120 nM | 52 µM | 7 nM | COc1cc2ncnc(Nc3ccc(F)c(Cl)c3)c2cc1OCCN(C)C
25 | 320 nM | 0.1 µM | 100 nM | COc1cc2ncnc(Nc3ccc(F)c(Cl)c3)c2cc1OCCNC(C)(C)C
26 | – | 34 µM | – | COc1cc2ncnc(Nc3ccc(F)c(Cl)c3)c2cc1OCCCN(C)C
27 | 380 nM | 0.04 µM | 8 nM | COc1cc2ncnc(Nc3ccc(F)c(Cl)c3)c2cc1OCC(O)Cn1ccnc1 (stereo not drawn)
